These results are taken from US10508088B2, “Methods using HDAC11 inhibitors” (FORMA Therapeutics, Inc., priority 2016, dated 2019).

Recombinant N-terminal GST tag full-length human HDAC11, sequence (Q96DB2 whole entry): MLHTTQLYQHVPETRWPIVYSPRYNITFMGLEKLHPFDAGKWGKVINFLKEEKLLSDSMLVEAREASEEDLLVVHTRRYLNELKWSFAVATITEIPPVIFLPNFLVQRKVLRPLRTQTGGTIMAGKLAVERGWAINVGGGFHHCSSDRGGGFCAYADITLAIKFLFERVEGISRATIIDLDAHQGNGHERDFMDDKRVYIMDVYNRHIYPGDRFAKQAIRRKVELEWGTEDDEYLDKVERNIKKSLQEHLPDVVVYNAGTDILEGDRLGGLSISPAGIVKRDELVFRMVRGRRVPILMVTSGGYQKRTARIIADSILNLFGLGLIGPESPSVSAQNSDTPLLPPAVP

The assay addresses Recombinant N-terminal GST tag full-length human HDAC11 (Homo sapiens (Human), UniProt Q96DB2). The assay can be described thus: Probe binding HDAC11 assay, time resolved fluorescence (TRF). To be noted: read-out: HDAC11 IC50 Range.
Turning to `O=C(NO)c1cccc(Nc2nc3cc(C(F)(F)F)c(-c4cc(F)ccc4CO)cc3[nH]2)c1` [Example 36-15, 3-((6-(5-fluoro-2-(hydroxymethyl)phenyl)-5-(trifluoromethyl)-1H-benzo[d]imidazol-2-yl)amino)-N-hydroxybenzamide], the half-inhibitory concentration (IC50) was < 500 nM.

Take `CN(c1cccc(C(=O)NO)c1)c1nc2cc(-c3cccnc3)c(C(F)(F)F)cc2n1C` [Example 34-1, N-hydroxy-3-(methyl(1-methyl-5-(pyridin-3-yl)-6-(trifluoromethyl)-1H-benzo[d]imidazol-2-yl)amino)benzamide]: the half-maximal inhibitory concentration (IC50) was > 1000 nM.

In the case of `O=C(NO)c1cccc(Nc2nc3cc(Cl)c(Cl)cc3o2)c1` [Example 1-1, 3-(5,6-dichlorobenzo[d]oxazol-2-ylamino)-N-hydroxybenzamide], the half-maximal inhibitory concentration (IC50) was < 500 nM. Next, `COCCn1c(Nc2cccc(C(=O)NO)c2)nc2cccc(OC)c21` [Example 24-2, N-hydroxy-3-((7-methoxy-1-(2-methoxyethyl)-1H-benzo[d]imidazol-2-yl)amino)benzamide]: > 1000 nM. Turning to `O=C(NO)c1cccc(Nc2nc3cc(C(F)(F)F)c(-c4ccccc4)cc3o2)c1` [Example 3-1, N-hydroxy-3-(6-phenyl-5-(trifluoromethyl)benzo[d]oxazol-2-ylamino)benzamide], the 50% inhibitory concentration (IC50) was < 500 nM. On to `Cc1cc2nc(Nc3cccc(C(=O)NO)c3)[nH]c2cc1C` [Example 23-4, 3-((5,6-dimethyl-1H-benzo[d]imidazol-2-yl)amino)-N-hydroxybenzamide], for which the half-inhibitory concentration (IC50) is < 500 nM. For `O=C(NO)c1cccc(Nc2nc3cc4c(cc3[nH]2)OCCO4)c1` [Example 33-9, 3-((6,7-dihydro-1H-[1,4]dioxino[2′,3′:4,5]benzo[1,2-d]imidazol-2-yl)amino)-N-hydroxybenzamide] the value was 500 to 1000 nM; for `N#Cc1cc2nc(Nc3cccc(C(=O)NO)c3)n(CCCCCN)c2cc1C(F)(F)F` [Example 21-1, 3-((1-(5-aminopentyl)-5-cyano-6-(trifluoromethyl)-1H-benzo[d]imidazol-2-yl)amino)-N-hydroxybenzamide], < 500 nM.

Consider `O=C(NO)c1cc(Nc2nc3ccccc3[nH]2)cc2ccccc12` [Example 23-2, 3-((1H-benzo[d]imidazol-2-yl)amino)-N-hydroxy-1-naphthamide], for which the 50% inhibitory concentration (IC50) was > 1000 nM. As to `CCOc1cccc(-c2cc3[nH]c(Nc4cccc(C(=O)NO)c4)nc3cc2C(F)(F)F)c1` [Example 36-4, 3-((6-(3-ethoxyphenyl)-5-(trifluoromethyl)-1H-benzo[d]imidazol-2-yl)amino)-N-hydroxybenzamide], the concentration for half-maximal inhibition (IC50) is < 500 nM.

Consider `COCc1cccc(-c2cc3[nH]c(Nc4cccc(C(=O)NO)c4)nc3cc2C(F)(F)F)c1` [Example 36-16, N-hydroxy-3-((6-(3-(methoxymethyl)phenyl)-5-(trifluoromethyl)-1H-benzo[d]imidazol-2-yl)amino)benzamide], for which the half-inhibitory concentration (IC50) is < 500 nM. As to `CN(C)C(=O)c1cccc(-c2cc3[nH]c(Nc4cccc(C(=O)NO)c4)nc3cc2C(F)(F)F)c1` [Example 36-18, 3-(2-((3-(hydroxycarbamoyl)phenyl)amino)-5-(trifluoromethyl)-1H-benzo[d]imidazol-6-yl)-N,N-dimethylbenzamide], the IC50 is < 500 nM.

Regarding `O=C(NO)c1ccnc(Nc2nc3cc(Cl)c(Cl)cc3o2)n1` [Example 4-8, 2-((5,6-dichlorobenzo[d]oxazol-2-yl)amino)-N-hydroxypyrimidine-4-carboxamide], the IC50 is > 1000 nM.

Take `O=C(NO)c1ccnc(Nc2nc3cc(Cl)c(Cl)cc3o2)c1` [Example 4-7, 2-((5,6-dichlorobenzo[d]oxazol-2-yl)amino)-N-hydroxyisonicotinamide]: the concentration for half-maximal inhibition (IC50) is < 500 nM. On to `O=C(NO)c1cccc(Nc2nc3cc(F)c(C(F)(F)F)cc3[nH]2)c1` [Example 33-5, 3-((5-fluoro-6-(trifluoromethyl)-1H-benzo[d]imidazol-2-yl)amino)-N-hydroxybenzamide], for which the IC50 is < 500 nM.

In the case of `CN(c1cccc(C(=O)NO)c1)c1nc2cc(C#N)c(C(F)(F)F)cc2[nH]1` [Example 9-1, 3-((5-cyano-6-(trifluoromethyl)-1H-benzo[d]imidazol-2-yl)(methyl)amino)-N-hydroxybenzamide], the IC50 was < 500 nM. With `O=C(NO)c1cccc(Nc2nc3cc(C(F)(F)F)c(-c4ccc5c(c4)OCCO5)cc3[nH]2)c1` [Example 36-9, 3-((6-(2,3-dihydrobenzo[b][1,4]dioxin-6-yl)-5-(trifluoromethyl)-1H-benzo[d]imidazol-2-yl)amino)-N-hydroxybenzamide], the IC50 was < 500 nM. Next, `O=C(NO)c1cccc(Nc2nc3cc(Cl)c(Cl)cc3s2)c1` [Example 5-1, 3-(5,6-dichlorobenzo[d]thiazol-2-ylamino)-N-hydroxybenzamide 2,2,2-trifluoroacetate]: < 500 nM; `CC(C)n1c(Nc2cccc(C(=O)NO)c2)nc2cc(C(F)(F)F)c(-c3ccccc3)cc21` [Example 16-1, N-hydroxy-3-(1-isopropyl-6-phenyl-5-(trifluoromethyl)-1H-benzo[d]imidazol-2-ylamino)benzamide]: < 500 nM. Turning to `CN(C)c1ccc(-c2cc3[nH]c(Nc4cccc(C(=O)NO)c4)nc3cc2C(F)(F)F)cn1` [Example 36-12, 3-((6-(6-(dimethylamino)pyridin-3-yl)-5-(trifluoromethyl)-1H-benzo[d]imidazol-2-yl)amino)-N-hydroxybenzamide], the half-maximal inhibitory concentration (IC50) was < 500 nM. For `O=C(NO)c1cccc(Nc2nc3cc(C(F)(F)F)c(-c4ccc5ncccc5c4)cc3[nH]2)c1` [Example 36-8, N-hydroxy-3-((6-(quinolin-6-yl)-5-(trifluoromethyl)-1H-benzo[d]imidazol-2-yl)amino)benzamide] the value was < 500 nM; for `Cn1c(Nc2cccc(C(=O)NO)c2)nc2cc(Cl)c(Cl)cc21` [Example 13-1, 3-(5,6-dichloro-1-methyl-1H-benzo[d]imidazol-2-ylamino)-N-hydroxybenzamide], < 500 nM; for `Cn1c(Nc2cccc(C(=O)NO)c2)nc2cc(C(F)(F)F)c(-c3cccnc3)cc21` [Example 35-2, N-hydroxy-3-((1-methyl-6-(pyridin-3-yl)-5-(trifluoromethyl)-1H-benzo[d]imidazol-2-yl)amino)benzamide], < 500 nM.

As for `CN(C)C(=O)c1ccc(-c2cc3[nH]c(Nc4cccc(C(=O)NO)c4)nc3cc2C(F)(F)F)cc1` [Example 36-6, 4-(2-((3-(hydroxycarbamoyl)phenyl)amino)-5-(trifluoromethyl)-1H-benzo[d]imidazol-6-yl)-N,N-dimethylbenzamide], the concentration for half-maximal inhibition (IC50) was < 500 nM.

Take `Cn1c(Nc2cccc(C(=O)NO)c2)nc2cc(-c3cccnc3)c(C(F)(F)F)cc21` [Example 35-1, N-hydroxy-3-((1-methyl-5-(pyridin-3-yl)-6-(trifluoromethyl)-1H-benzo[d]imidazol-2-yl)amino)benzamide]: the half-maximal inhibitory concentration (IC50) fell in the range of 500 to 1000 nM. As for `N#Cc1cc2oc(Nc3cccc(C(=O)NO)c3)nc2cc1C(F)(F)F` [Example 2-1, 3-(6-cyano-5-(trifluoromethyl)benzo[d]oxazol-2-ylamino)-N-hydroxybenzamide], the half-inhibitory concentration (IC50) was < 500 nM. For the compound `O=C(NO)c1cccc(Nc2nc3cncnc3[nH]2)c1` [Example 30-1, 3-((9H-purin-8-yl)amino)-N-hydroxybenzamide], the IC50 was > 1000 nM. Regarding `CC(C)n1c(Nc2cccc(C(=O)NO)c2)nc2cc(Cl)c(Cl)cc21` [Example 17-1, 3-(5,6-dichloro-1-isopropyl-1H-benzo[d]imidazol-2-ylamino)-N-hydroxybenzamide], the IC50 was < 500 nM. Next, `O=C(NO)c1cccc(Nc2nc3cc(Cl)c([N+](=O)[O-])cc3[nH]2)c1` [Example 33-15, 3-((5-chloro-6-nitro-1H-benzo[d]imidazol-2-yl)amino)-N-hydroxybenzamide]: < 500 nM. `CN(c1cccc(C(=O)NO)c1)c1nc2cc(C(F)(F)F)c(-c3cccnc3)cc2n1C` [Example 34-2, N-hydroxy-3-(methyl(1-methyl-6-(pyridin-3-yl)-5-(trifluoromethyl)-1H-benzo[d]imidazol-2-yl)amino)benzamide]: the IC50 was > 1000 nM.

In the case of `O=C(NO)c1cccc(Nc2nc3ncccc3o2)c1` [Example 32-1, N-hydroxy-3-(oxazolo[4,5-b]pyridin-2-ylamino)benzamide], the 50% inhibitory concentration (IC50) is > 1000 nM.

Regarding `O=C(NO)c1cccc(Nc2nc3cc(C(F)(F)F)c(-c4ccc(N5CCOCC5)cc4)cc3[nH]2)c1` [Example 36-19, N-hydroxy-3-((6-(4-morpholinophenyl)-5-(trifluoromethyl)-1H-benzo[d]imidazol-2-yl)amino)benzamide], the half-maximal inhibitory concentration (IC50) is < 500 nM. For `CN(c1cccc(C(=O)NO)c1)c1nc2cc(C(F)(F)F)c(-c3ccccc3)cc2n1C` [Example 34-3, N-hydroxy-3-(methyl(1-methyl-6-phenyl-5-(trifluoromethyl)-1H-benzo[d]imidazol-2-yl)amino)benzamide] the value was 500 to 1000 nM; for `COCCn1c(Nc2cccc(C(=O)NO)c2)nc2cc(C(F)(F)F)c(-c3ccccc3)cc21` [Example 20-1, N-hydroxy-3-(1-(2-methoxyethyl)-6-phenyl-5-(trifluoromethyl)-1H-benzo[d]imidazol-2-ylamino)benzamide], < 500 nM.
